This passage reports IC50 results from US9145411B2, “Substituted amino-pyrimidine derivatives” (Asana Biosciences, LLC, priority 2012, dated 2015).

One experiment addresses T1, PI3Kα (wild-type) (Homo sapiens, UniProt P42336).
T1 construct: made in house; host or cells: SF9 insect cells
As to the kind of experiment: PI3 Kinase TR-FRET assay, PI3Kα (wild-type). The class given is biochemical. To be noted: wild-type P110/P85α, 10 μM ATP. The method in brief:
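Sf9-expressed, Ni-purified p110/p85α (5 ng) with PIP2 was preincubated with compound for 60 min at room temperature in buffer with 40 mM MgCl2 and 5 mM DTT. The reaction ran 30 min at room temperature with 10 μM PIP2 and 10 μM ATP. The TR-FRET 665/615 nm ratio was used to derive IC50 from dose-response curves.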

For another experiment, the target named is T2, mTOR kinase (Homo sapiens, UniProt P42345).
T2 construct: purchased Millipore, USA
T2 sequence (P42345 1362-2549 limits assumed): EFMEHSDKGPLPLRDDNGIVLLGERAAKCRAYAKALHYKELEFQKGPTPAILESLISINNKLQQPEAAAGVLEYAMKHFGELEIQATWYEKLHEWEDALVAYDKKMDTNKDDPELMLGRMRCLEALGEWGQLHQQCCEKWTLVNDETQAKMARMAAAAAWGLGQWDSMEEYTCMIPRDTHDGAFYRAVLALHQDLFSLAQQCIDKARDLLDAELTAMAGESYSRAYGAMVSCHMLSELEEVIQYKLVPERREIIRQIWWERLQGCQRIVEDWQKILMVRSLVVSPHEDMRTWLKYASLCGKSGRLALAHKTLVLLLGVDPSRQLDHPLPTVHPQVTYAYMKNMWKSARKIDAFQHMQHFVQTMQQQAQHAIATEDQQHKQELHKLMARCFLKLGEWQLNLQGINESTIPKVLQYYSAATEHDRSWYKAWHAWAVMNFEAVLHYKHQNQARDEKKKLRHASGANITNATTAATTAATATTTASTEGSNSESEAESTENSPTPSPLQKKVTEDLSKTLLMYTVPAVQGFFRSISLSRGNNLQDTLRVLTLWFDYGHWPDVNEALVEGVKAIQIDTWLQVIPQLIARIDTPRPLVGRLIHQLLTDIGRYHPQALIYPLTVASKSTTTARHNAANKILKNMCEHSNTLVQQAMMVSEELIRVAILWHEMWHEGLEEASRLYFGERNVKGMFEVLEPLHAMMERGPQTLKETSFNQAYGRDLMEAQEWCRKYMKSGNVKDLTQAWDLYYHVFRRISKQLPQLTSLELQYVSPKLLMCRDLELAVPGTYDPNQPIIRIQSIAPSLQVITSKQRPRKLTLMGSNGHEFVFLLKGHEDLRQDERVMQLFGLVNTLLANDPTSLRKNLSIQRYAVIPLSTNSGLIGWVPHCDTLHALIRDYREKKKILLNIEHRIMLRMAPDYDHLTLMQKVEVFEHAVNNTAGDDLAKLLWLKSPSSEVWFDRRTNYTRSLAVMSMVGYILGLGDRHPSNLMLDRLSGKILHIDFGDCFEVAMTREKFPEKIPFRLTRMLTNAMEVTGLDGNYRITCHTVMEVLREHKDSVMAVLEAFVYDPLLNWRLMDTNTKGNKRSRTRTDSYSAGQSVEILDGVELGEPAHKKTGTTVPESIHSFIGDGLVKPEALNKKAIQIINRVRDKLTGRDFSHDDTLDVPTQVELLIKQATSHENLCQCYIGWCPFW
As to the kind of experiment: mTOR kinase TR-FRET assay. In kind it is biochemical. To be noted: 20 μM ATP. A digest of the protocol: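 Test compounds were pre-incubated 60 min with mTOR (5 ng), then ULight-p70 S6K (Thr389) peptide (50 nM) and ATP (20 μM) were added in HEPES 50 mM pH 7.5, EGTA, MnCl2 3 mM. After 60 min at room temperature, EDTA stop and Eu-anti-phospho antibody TR-FRET (665/615 nm) gave IC50 from sigmoidal variable-slope fits.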
On the technique in general: In TR-FRET formats the signal depends on donor and acceptor labels being close together.

The next experiment concerns pAkt(T308). As to the kind of experiment: In-cell Western assay, pAkt(T308), PC3 cells. The class given is cell-based. The conditions noted are these: Homo sapiens, PC-3, 2 hours incubation. The method, then:
Cells from human prostate cancer cell line PC3 (American Type Culture Collection (ATCC), Manassas, Va. 20108 USA) were seeded at an optimal density of 22,000 cell/well in 96-well plates containing Ham's F12K medium (90 μL) and incubated overnight. The compound dilutions were carried out in 100% DMSO followed by a dilution in the medium. Test compounds were added in serial dilutions to the wells and incubated for 2 hours. The cells were washed and fixed with 4% paraformaldehyde. After incubation at room temperature for 1 hour in the dark, blocking was done for 2 hours at room temperature. Primary antibodies for pAkt(S473) ([…] phosphorylated at serine 473), pAkt(T308) (Akt phosphorylated at threonine 308) and for pS6RP (S235/236) (phosphorylated at serine 235/236) (commercially available from Cell Signaling Technology®, whose protocol was followed for the in-cell western assay, were diluted to the required concentration and added to the corresponding wells followed by overnight incubation at 4° C. Eu-labeled rabbit (PE) (Perkin-Elmer USA catalog #AD0106) secondary antibody was added and incubated for 2 hours at room temperature. Delfia® enhancement solution (cat #1244-105, Perkin Elmer USA) was subsequently added to the plate before taking the reading at 615 nm with excitation wavelength of 340 nm, after which 0.5 μg/mL of Hoechst® 33258 dye (Catalog #86140-5, Sigma) was added to the plate and fluorescence emission was read at 460 nm with 355 nm excitation, to evaluate the correction factor. IC50 values were calculated using a sigmoidal dose-response curve fit in GraphPad Prism® v5 software.

The subject of a further experiment is PC3 cells. The experiment is described as follows: XTT assay for cell viability, PC3 cells. In kind it is cell-based. To be noted: Homo sapiens, PC-3; PC3 cell proliferation, 96 hours. A digest of the protocol:
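Log-phase PC3 cells (1000/well) were seeded for 24 h, then exposed to serially diluted compounds (DMSO dilutions) for 96 h. Viability was measured by XTT dye conversion at 37 °C, with absorbance read at 465 nm. EC50 was obtained from a sigmoidal dose-response fit.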

The structures appear in SMILES notation.

T1 sequence (P42336 whole entry, species assumed): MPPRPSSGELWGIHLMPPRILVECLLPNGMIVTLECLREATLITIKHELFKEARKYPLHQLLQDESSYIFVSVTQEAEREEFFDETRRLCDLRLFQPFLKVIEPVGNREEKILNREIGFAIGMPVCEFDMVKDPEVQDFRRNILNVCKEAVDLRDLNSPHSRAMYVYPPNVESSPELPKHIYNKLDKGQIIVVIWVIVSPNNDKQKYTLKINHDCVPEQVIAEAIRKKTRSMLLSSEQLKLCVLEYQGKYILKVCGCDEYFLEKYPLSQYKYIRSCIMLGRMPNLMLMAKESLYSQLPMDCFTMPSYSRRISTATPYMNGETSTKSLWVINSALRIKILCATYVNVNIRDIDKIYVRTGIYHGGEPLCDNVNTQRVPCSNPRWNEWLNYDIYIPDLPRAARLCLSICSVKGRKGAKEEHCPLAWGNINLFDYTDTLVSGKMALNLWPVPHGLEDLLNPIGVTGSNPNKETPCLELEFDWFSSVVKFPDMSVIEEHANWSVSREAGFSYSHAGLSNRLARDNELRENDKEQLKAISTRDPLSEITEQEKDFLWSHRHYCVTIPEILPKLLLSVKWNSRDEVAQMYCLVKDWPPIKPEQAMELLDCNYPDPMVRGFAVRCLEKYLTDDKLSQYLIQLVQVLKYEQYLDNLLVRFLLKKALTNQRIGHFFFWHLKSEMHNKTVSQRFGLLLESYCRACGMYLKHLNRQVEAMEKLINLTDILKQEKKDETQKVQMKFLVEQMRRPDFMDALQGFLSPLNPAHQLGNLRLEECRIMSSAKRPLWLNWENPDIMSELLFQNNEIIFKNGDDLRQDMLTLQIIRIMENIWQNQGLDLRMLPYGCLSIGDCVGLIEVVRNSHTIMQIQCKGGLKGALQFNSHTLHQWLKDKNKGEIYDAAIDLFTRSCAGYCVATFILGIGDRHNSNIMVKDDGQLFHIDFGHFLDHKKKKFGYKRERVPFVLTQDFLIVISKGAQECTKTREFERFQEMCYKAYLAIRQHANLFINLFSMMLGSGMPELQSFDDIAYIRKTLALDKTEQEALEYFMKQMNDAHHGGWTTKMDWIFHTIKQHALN
T1 sequence (P27986 whole entry partner, species assumed): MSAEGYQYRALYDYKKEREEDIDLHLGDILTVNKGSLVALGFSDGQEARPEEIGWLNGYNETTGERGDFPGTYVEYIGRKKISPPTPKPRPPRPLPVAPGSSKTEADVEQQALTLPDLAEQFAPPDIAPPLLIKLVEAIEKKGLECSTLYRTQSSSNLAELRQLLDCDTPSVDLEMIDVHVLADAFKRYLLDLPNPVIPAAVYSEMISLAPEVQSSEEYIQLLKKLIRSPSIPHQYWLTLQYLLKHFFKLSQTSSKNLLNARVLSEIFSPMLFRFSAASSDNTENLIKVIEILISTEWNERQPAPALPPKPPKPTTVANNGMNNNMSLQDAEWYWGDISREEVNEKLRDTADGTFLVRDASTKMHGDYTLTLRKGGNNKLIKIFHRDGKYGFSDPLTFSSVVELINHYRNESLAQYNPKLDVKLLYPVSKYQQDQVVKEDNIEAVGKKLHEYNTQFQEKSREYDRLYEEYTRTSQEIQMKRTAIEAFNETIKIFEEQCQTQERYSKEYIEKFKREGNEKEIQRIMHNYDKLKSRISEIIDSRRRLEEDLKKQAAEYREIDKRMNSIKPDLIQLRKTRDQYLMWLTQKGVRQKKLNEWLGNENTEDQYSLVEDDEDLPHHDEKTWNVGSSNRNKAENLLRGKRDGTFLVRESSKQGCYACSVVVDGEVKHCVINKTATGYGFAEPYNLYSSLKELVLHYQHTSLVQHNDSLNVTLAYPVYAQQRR

What is called IC50 is the midpoint of a concentration-inhibition curve. Read a high IC50 as a need for much substance. On to `CN1CCN(C(=O)c2ccc(-c3cnc4c(N5CCOCC5)nc(-c5cnc(N)nc5)nc4c3)o2)CC1` [Example 5, (5-(2-(2-Aminopyrimidin-5-yl)-4-morpholinopyrido[3,2-d]pyrimidin-7-yl)furan-2-yl)(4-methylpiperazin-1-yl)methanone], for which the values for the IC50 on PI3Kα (wild-type), against mTOR kinase and in the experiment with pAkt(T308) were less than 0.05 µM, 0.05 to 0.2 µM and 0.1 to 0.5 µM, respectively.

As to `Nc1ncc(-c2nc(N3CCOCC3)c3ncc(-c4cccc(NS(=O)(=O)c5ccc(F)cc5)c4)cc3n2)cn1` [Example 8, N-(3-(2-(2-aminopyrimidin-5-yl)-4-morpholinopyrido[3,2-d]pyrimidin-7-yl)phenyl)-4-fluorobenzenesulfonamide], the IC50 against PI3Kα (wild-type) is less than 0.05 µM; against mTOR kinase, less than 0.05 µM; in the experiment with pAkt(T308) it was 0.1 to 0.5 µM; with PC3 cells it was 0.501 to 5 µM.

On to `Nc1ncc(-c2nc(N3CCOCC3)c3ncc(-c4cccc(NC(=O)CN5CCC(O)CC5)c4)cc3n2)cn1` [Example 9, N-(3-(2-(2-Aminopyrimidin-5-yl)-4-morpholinopyrido[3,2-d]pyrimidin-7-yl)-phenyl)-2-(4-hydroxypiperidin-1-yl)acetamide], for which the IC50 is less than 0.05 µM against PI3Kα (wild-type), less than 0.05 µM on mTOR kinase, less than 0.1 µM in the experiment on pAkt(T308) and 0.1 to 0.5 µM in the experiment with PC3 cells.

Regarding `CNC(=O)Nc1ccc(-c2cnc3c(N4CCOCC4)nc(-c4cnc(N)nc4)nc3c2)cc1` [Example 29, 1-(4-(2-(2-amino-pyrimidin-5-yl)-4-morpholinopyrido[3,2-d]pyrimidin-7-yl)phenyl)-3-methylurea], the IC50 is less than 0.05 µM against PI3Kα (wild-type), less than 0.05 µM against mTOR kinase, 0.1 to 0.5 µM in the experiment on pAkt(T308) and 0.1 to 0.5 µM with PC3 cells.

On to `Nc1ncc(-c2nc(N3CCOCC3)c3ncc(-c4cncc(NC(=O)C5CC5)c4)cc3n2)cn1` [Example 31, N-(5-(2-(2-amino-pyrimidin-5-yl)-4-morpholinopyrido[3,2-d]pyrimidin-7-yl)pyridin-3-yl)cyclopropane-carboxamide], for which the IC50 was less than 0.05 µM on PI3Kα (wild-type), less than 0.05 µM against mTOR kinase, 0.1 to 0.5 µM with pAkt(T308) and less than 0.1 µM in the experiment with PC3 cells.

Turning to `CNC(=O)c1ccc(-c2cnc3c(N4CCOCC4)nc(-c4cnc(N)nc4)nc3c2)cc1` [Example 33, 4-(2-(2-aminopyrimidin-5-yl)-4-morpholinopyrido[3,2-d]pyrimidin-7-yl)-N-methylbenzamide], the IC50 on PI3Kα (wild-type) is less than 0.05 µM; against mTOR kinase it was less than 0.05 µM; with pAkt(T308), 0.1 to 0.5 µM; with PC3 cells it was 0.1 to 0.5 µM.

For the compound `Nc1ncc(-c2nc(N3CCOCC3)c3ncc(-c4cccc(NC(=O)c5cnccn5)c4)cc3n2)cn1` [Example 64, N-(3-(2-(2-amino-pyrimidin-5-yl)-4-morpholinopyrido[3,2-d]pyrimidin-7-yl)-phenyl)pyrazine-2-carboxamide], the IC50 is less than 0.05 µM on PI3Kα (wild-type) and 0.1 to 0.5 µM in the experiment with pAkt(T308).

In the case of `CN1CCN(CC(=O)Nc2cccc(-c3cnc4c(N5CCOCC5)nc(-c5cnc(N)nc5)nc4c3)c2F)CC1` [Example 86, N-(3-(2-(2-amino-pyrimidin-5-yl)-4-morpholinopyrido[3,2-d]-pyrimidin-7-yl)-2-fluoro-phenyl)-2-(4-methyl-piperazin-1-yl)acetamide], the IC50 on PI3Kα (wild-type) was less than 0.05 µM; on mTOR kinase it was 0.05 to 0.2 µM; in the experiment on pAkt(T308), 0.501 to 5 µM.

As to `N#CC1(C(=O)Nc2ccc(F)c(-c3cnc4c(N5CCOCC5)nc(-c5cnc(N)nc5)nc4c3)c2)CC1` [Example 124, N-(3-(2-(2-amino-pyrimidin-5-yl)-4-morpholinopyrido[3,2-d]pyrimidin-7-yl)-4-fluorophenyl)-1-cyanocyclopropane-carboxamide], the values for the IC50 at PI3Kα (wild-type), against mTOR kinase and with PC3 cells were less than 0.05 µM, 0.05 to 0.2 µM and greater than 1 µM, respectively.

`N#CC1(C(=O)Nc2cccc(-c3cnc4c(N5CCOCC5)nc(-c5cnc(N)nc5)nc4c3)c2F)CC1` [Example 125, N-(3-(2-(2-amino-pyrimidin-5-yl)-4-morpholinopyrido[3,2-d]pyrimidin-7-yl)-2-fluorophenyl)-1-cyanocyclopropane-carboxamide]: the IC50 was less than 0.05 µM on PI3Kα (wild-type), less than 0.05 µM against mTOR kinase and 0.1 to 0.5 µM in the experiment with PC3 cells.
